# Where two headings read alike, the source gives them in different places.
# Assays:
# mushroom tyrosinase [1] = molecular target: T1, mushroom tyrosinase (Agaricus bisporus, UniProt C7FF04); experiment: Circular dichroism analysis of the secondary structure of mushroom tyrosinase; settings: 0.1 mM; for α-helix % of tyrosinase: enzyme alone 16; for β-sheet % of tyrosinase: enzyme alone 33; for Turn % of tyrosinase: enzyme alone 7; for Random coil % of tyrosinase: enzyme alone 44
# Description: The structural changes in tyrosinase after incubation with ED and PAED were plotted in Fig. 5. […] We observed that the control tyrosinase enzyme has 16% α-helix, 33% β-sheets, 7% turn, and 44% random coil. After the interaction with 4a, the amount of α-helix changed to 15% and β-sheets changed to 35%. On the other hand, after the plasma treatment of 4a the amount of α-helix changed to 17% and β-sheets changed to 31%. While, after interacting with 4b, the amount of α-helix is 16.0%, β-sheets 29%, turn 10%, and random coil is 45.0%. However, plasma-activated 4b interacts differently with tyrosinase enzyme, showing 16% α-helix, 33% β-sheets, 6% turn, and 45% random coil. When 6a ED interacted with tyrosinase enzyme, we observed 20% α-helix, 25% β-sheets, 11.0% turn, and 44% random coil. However, 6a PAED interacts with tyrosinase enzyme, the α-helix changed to 19%, β-sheets 28%, turn 9%, and random coil 44%. […] To obtain further detail on the interaction of the ED with tyrosinase enzyme, we studied the molecular docking. For the CD spectroscopic studies[65][66][67] a J-815 spectrophotometer (Jasco, Japan) was used, equipped with a Peltier system that controlled the temperature. (1S)-(+)-10-camphorsulfonic acid (Aldrich, Milwaukee, WI) with a molar extinction coefficient of 34.5 M/cm at 285 nm and a 2.36 M/cm molar ellipticity (θ) at 295 nm was used for the CD calibrations. The samples were pre-equilibrated at the desired temperature for 15 min, and the scan speed was fixed for adaptative sampling (error F 0.01) with a response time of 1 sec and a 1 nm bandwidth. The secondary structure of the mushroom tyrosinase was monitored by using a 1.0 cm path length cuvette. The mushroom tyrosinase (0.2 mg/ml) was prepared in phosphate buffer (20 mM) at pH 6.8 for CD analysis. We used the 0.1 mM concentration of all derivatives in 1 ml buffer solution, with or without 10 min plasma treatment. All spectra were collected in triplicate from 200 to 250 nm and the background was corrected against the buffer (blank). The percentages of secondary structures of proteins were calculated using inbuilt Jasco software.
# Target sequence in this assay (C7FF04 2-392): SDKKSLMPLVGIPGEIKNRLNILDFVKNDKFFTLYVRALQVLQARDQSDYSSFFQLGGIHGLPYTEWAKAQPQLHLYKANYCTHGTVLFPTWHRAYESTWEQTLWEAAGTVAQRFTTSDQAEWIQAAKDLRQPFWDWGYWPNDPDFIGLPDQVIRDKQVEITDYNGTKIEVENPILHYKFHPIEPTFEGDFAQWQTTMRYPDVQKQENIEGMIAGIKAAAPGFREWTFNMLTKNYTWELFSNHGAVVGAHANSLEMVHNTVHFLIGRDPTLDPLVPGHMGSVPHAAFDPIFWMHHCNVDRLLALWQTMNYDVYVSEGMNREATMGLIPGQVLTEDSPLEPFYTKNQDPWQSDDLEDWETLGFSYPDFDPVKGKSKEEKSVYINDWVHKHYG
# B16F10 cells = experiment: Intracellular melanin content measurement; format: cell-based, murine; settings: for melanin, % of control (normalized to 100%): as-synthesized ED, no α-MSH, concentration not given
# Description: Melanoma (1.5 × 10^5) cells were seeded in cell culture plates and allowed to attach for 24 hr. Then each eugenol derivative was added and tested separately for melanin activation after 24 hr of incubation. After incubation, cells were detached using trypsin/EDTA and centrifuged at 1000 rpm for 5 min to collect the cell pellets. The cell pellets were solubilized in 1N NaOH at 60 °C for 1 hr. The melanin content was measured spectrophotometrically at 405 nm wavelength using a microplate reader (BioTek, synergy HT)[56]. […] Plasma-treated and non-plasma-treated ED (4b and 6a) were added to the cells, pre-incubated with or without α-MSH (100 nM) for a further 24 hr and melanin content was assayed as described above. Kojic acid can inhibit and α-MSH can stimulate the melanin in the cells, therefore we used them as negative and positive controls.
# mushroom tyrosinase [2] = molecular target: T1, mushroom tyrosinase; experiment: Mushroom tyrosinase inhibition assay (L-DOPA, dopachrome at 492 nm); format: biochemical; parameters: purchased Sigma Chemical Co. USA; settings: mean ± SD, read-out: Tyrosinase inhibitory activity IC50 (converted)
# Description: To determine the action of ED and PAED, we checked the mushroom tyrosinase inhibitory activity in a cell-free environment. […] Moreover, after plasma treatment for different time intervals, we observed that inhibition activity of 4a, 4b, 4d and 6a was improved more as compared to without treatment. […] However, we observed the highest relative improvement in IC50 value of compound 4b among all ED compounds at 10 min plasma treatment. […] Therefore, we used the 4b and 6a compounds for further investigations, based on the decrease in IC50 value to a global minimum of the experiment after plasma treatment.
# The mushroom tyrosinase was used for in vitro bioassays as described previously with some modifications. Briefly, 140 μl of phosphate buffer (20 mM, pH 6.8), 20 μl of mushroom tyrosinase (30 U/ml), and 20 μl of the inhibitor solution were placed in the wells of a 96-well plate. After pre-incubation for 10 min at room temperature, 20 μl of L-DOPA (3,4-dihydroxyphenylalanine) (0.85 mM) was added and the plate was further incubated at 25 °C for 20 min. Subsequently the absorbance of dopachrome was measured at 492 nm using a micro plate reader (OPTI Max, Tunable). Kojic acid was used as a reference inhibitor. The extent of inhibition by the test compounds was expressed as the […] necessary to achieve 50% inhibition (IC50). Each concentration was analyzed in three independent experiments run in triplicate. The IC50 values were determined by the data analysis and graphing software, Origin.
# Target sequence in this assay (C7FF04 1-392): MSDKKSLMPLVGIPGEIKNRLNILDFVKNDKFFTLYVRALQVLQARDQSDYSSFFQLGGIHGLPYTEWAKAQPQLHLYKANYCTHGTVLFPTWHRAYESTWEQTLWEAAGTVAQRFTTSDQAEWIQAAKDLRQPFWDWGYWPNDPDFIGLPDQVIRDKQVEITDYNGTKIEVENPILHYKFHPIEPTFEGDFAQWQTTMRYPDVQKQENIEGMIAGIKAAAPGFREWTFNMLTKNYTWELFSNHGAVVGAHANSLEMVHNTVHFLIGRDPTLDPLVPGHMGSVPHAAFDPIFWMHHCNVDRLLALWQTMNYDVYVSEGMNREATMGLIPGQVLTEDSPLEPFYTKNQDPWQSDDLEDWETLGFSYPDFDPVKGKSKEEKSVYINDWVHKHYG
# [3] = tyrosinase + 10 min plasma-treated compound
# [4] = tyrosinase + as-synthesized compound (0 min plasma)
# [5] = Con: as-synthesized, before plasma treatment, cell-free
# [6] = compound after 3 min N2 APPJ plasma treatment
# [7] = compound after 5 min N2 APPJ plasma treatment
# [8] = compound after 10 min N2 APPJ plasma treatment
Compound,α-helix % of tyrosinase (mushroom tyrosinase [1]; [3]),β-sheet % of tyrosinase (mushroom tyrosinase [1]; [3]),Turn % of tyrosinase (mushroom tyrosinase [1]; [4]),α-helix % of tyrosinase (mushroom tyrosinase [1]; [4]),β-sheet % of tyrosinase (mushroom tyrosinase [1]; [4]),Random coil % of tyrosinase (mushroom tyrosinase [1]; [4]),melting point,"melanin, % of control (normalized to 100%) (B16F10 cells)",IC50 (mushroom tyrosinase [2]; [5]),IC50 (mushroom tyrosinase [2]; [6]),IC50 (mushroom tyrosinase [2]; [7]),IC50 (mushroom tyrosinase [2]; [8]),"melanin stimulation (in words) (B16F10 cells; with or without plasma treatment, presence or absence of α-MSH (Fig. 10))","inhibition at 250 µg/mL (B16F10 cells; Mus musculus, B16-F10, 250 μg/ml, absence of α-MSH, negative control, read-out: inhibition of melanin synthesis compared to the control)",Turn % of tyrosinase (mushroom tyrosinase [1]; [3]),Random coil % of tyrosinase (mushroom tyrosinase [1]; [3]),"melanin synthesis, % of control (100%) (B16F10 cells; 10 min plasma-treated, presence of α-MSH)"
"C=CCc1ccc(OC(=O)COC(=O)c2cccc(O)c2)c(OC)c1 [4a, 2-[2-methoxy-4-(prop-2-en-1-yl)phenoxy]-2-oxoethyl 3-hydroxybenzoate]",17%,31%,5%,15%,35%,45%,70 to 72 °C,116%,73 µM,70.1 µM,58.4 µM,49.7 µM,,,,,
"C=CCc1ccc(OC(=O)COC(=O)c2ccc(O)cc2O)c(OC)c1 [4c, 2-[2-methoxy-4-(prop-2-en-1-yl)phenoxy]-2-oxoethyl 2,4-dihydroxybenzoate]",,,4%,16%,35%,45%,99 to 101 °C,117%,41.9 µM,53 µM,67 µM,80.9 µM,,,,,
"C=CCc1ccc(OC(=O)COC(=O)c2ccc(O)c(O)c2)c(OC)c1 [4d, 2-[2-methoxy-4-(prop-2-en-1-yl)phenoxy]-2-oxoethyl 3,4-dihydroxybenzoate]",,,7%,15%,33%,45%,148 to 151 °C,110%,162 µM,131 µM,100 µM,80.9 µM,,,,,
"C=CCc1ccc(OC(=O)COC(=O)c2cc(O)cc(O)c2)c(OC)c1 [4e, 2-[2-methoxy-4-(prop-2-en-1-yl)phenoxy]-2-oxoethyl 3,5-dihydroxybenzoate]",,,6%,15%,33%,46%,107 to 109 °C,115%,53 µM,215 µM,201 µM,156 µM,,,,,
"C=CCc1ccc(OC(=O)COC(=O)/C=C/c2ccc(Cl)cc2)c(OC)c1 [6b, 2-[2-methoxy-4-(prop-2-en-1-yl)phenoxy]-2-oxoethyl(2E)-3-(4-chloroyphenyl)prop-2-enoate]",,,3%,15%,37%,45%,86 to 88 °C,119%,18.1 µM,85.3 µM,103 µM,142 µM,Melanin stimulation was observed,,,,
"O=c1cc(CO)occ1O [Kojic acid, reference compound]",,,,,,,,,,,,,,~12%,,,
O=C(COC(=O)c1ccc(O)cc1)Oc1ccc(C(=O)/C=C/O)cc1OCO [Plasma treated 4b],16%,33%,,,,,,,,,,,,,6%,45%,188%
C=CC(=O)c1ccc(OC(=O)COC(=O)/C=C/c2ccc(O)cc2)c(OC)c1 [Plasma treated 6a],19%,28%,,,,,,,,,,,,,9%,44%,

# From PMC4773869, “Influence of plasma-activated compounds on melanogenesis and tyrosinase activity” (Scientific Reports, 2016)
